Data: patent US20150329519A1, “Formulations Comprising Lipoyl Compounds” (Ischemix, LLC, priority 2014, published 2015)

Experiments:
[1] = Polymer content by HPLC area counts after formulation or salt formation; type: physicochemical
Description: The purity of a lipoyl compound was analyzed by reversed-phase high performance liquid chromatography (HPLC). Mobile phase A was 0.1% triflouroacetic acid (TFA) in H2O and mobile phase B was 0.1% TFA in acetontrile (ACN). A linear gradient of 85:15 to 26:74 over 22 minutes at a flow rate of 1.5 mL/min at 30° C. was used. A lipoyl compound was diluted in ethanol:water (1:1) at a concentration of 1 mg/mL and a 25 μL aliquot was injected onto the HPLC. The sample was detected at 220 nm.
The initial procedure used to formulate (R)Lip-EA-OH consisted of the following sequence: • 1. Neutralize solid (R)Lip-EA-OH by treatment with aqueous sodium bicarbonate or sodium hydroxide; • 2. Dilute with water and saline to near the final volume and concentration; and • 3. Adjust pH and add water to final volume and concentration.
This formulation procedure was used effectively to prepare formulation from multiple lots of (R)Lip-EA-OH that were synthesized at scales below 50 g. As the synthetic process was scaled-up, however, partial polymerization of (R)Lip-EA-OH was observed during formulation. […]
Since (R)Lip-EA-OH was converted to the corresponding bis-sodium salt in situ during formulation, a procedure for synthesizing the bis-sodium salt of (R)Lip-EA-OH was examined. […] The isolated polymer was treated with the reducing agent dithiothreitol (DTT), and the resulting sample was analyzed by HPLC. […]

[2] = system: patients with stable coronary artery disease undergoing elective stent placement by PCI; assay: Randomized placebo-controlled study of single IV dose in patients undergoing elective stent placement by PCI (CK-MB, Troponin-T); type: in vivo, human; settings: for Troponin-T (ng/mL) - Change from baseline (FAP population), Mean / Troponin-T (ng/mL) - Change from baseline (FAP population), Median / Troponin-T (ng/mL), Mean / Troponin-T (ng/mL), Median: Day 1 (24 hours)
Description: A prospective, multi-center, blinded, randomized, placebo-controlled study to evaluate single dose regimens of a 10 mg/mL (R)Lip-EA-OH formulation for IV administration or single dose placebo in patients with stable coronary artery disease undergoing elective stent placement by PCI meeting all the eligibility criteria was conducted. The (R)Lip-EA-OH formulation was made in accordance with Example 3 and was administered at one of three doses: 0.8 mg/kg, 1.6 mg/kg and 2.4 mg/kg. The primary objective was to assess the safety of the (R)Lip-EA-OH formulation, ascertained by measuring the changes in CK-MB values up to 24 hours after the last balloon inflation. The secondary objective was to evaluate reduction of myocardial injury associated with stent PCI, as determined by serial measurements of cardiac biomarkers and as determined by continuous and serial ECG readings.
The primary outcome measure was the change in CK-MB at 24 hours after the last balloon inflation and it served as a surrogate marker for myocardial injury considered for safety and efficacy. CK-MB levels were measured on Day 1 at 0, 6, 12, 18, and 24 hours after the last balloon inflation.
The maximum serum concentration of CK-MB (Cmax) is calculated by subtracting the baseline value from the maximum concentration of CK-MB measured at any time point. CK-MB Cmax is correlated to the extent of myocardial injury associated with the PCI. The greatest Cmax value observed was in the placebo group.

[3] = system: myocardial damage associated with percutaneous coronary intervention; settings: human trial, Kates et al. 2014; cited from earlier work
[4] = 2.4 mg/kg dose group compared with other groups
[5] = 0.8, 1.6 or 2.4 mg/kg versus placebo, following PCI

## C[C@H](NC(=O)[C@H](CCC(=O)O)NC(=O)CCCC[C@@H]1CCSS1)C(=O)O [(R)Lip-EA-OH, α-N—[(R)-1,2-diothiolane-3-pentanoyl]-L-glutamyl-L-alanine]
[1]; after formulation by the initial procedure (solid neutralized, then diluted), FIG. 1
  Polymer based upon HPLC area counts: > 20%
[1]; initially, before formulation
  Polymer by HPLC area count analysis: < 0.1%
[2]; 0.8 mg/kg single IV dose of 10 mg/mL formulation, 6 hr after last balloon inflation
  CK-MB (ng/mL) - Change from Baseline, Mean: 0.12 ng/mL
[2]; 0.8 mg/kg single IV dose of 10 mg/mL formulation, 12 hr after last balloon inflation
  CK-MB (ng/mL) - Change from Baseline, Mean: 1.63 ng/mL
[2]; 0.8 mg/kg single IV dose of 10 mg/mL formulation, 18 hr after last balloon inflation
  CK-MB (ng/mL) - Change from Baseline, Mean: 1.87 ng/mL
[2]; 0.8 mg/kg single IV dose of 10 mg/mL formulation, 24 hr after last balloon inflation
  CK-MB (ng/mL) - Change from Baseline, Mean: 1.80 ng/mL
[2]; 0.8 mg/kg
  Troponin-T (ng/mL) - Change from baseline (FAP population), Mean: 0.041 ng/mL
  Troponin-T (ng/mL) - Change from baseline (FAP population), Median: 0.000 ng/mL
  Troponin-T (ng/mL), Mean: 0.042 ng/mL
  Troponin-T (ng/mL), Median: 0.000 ng/mL
[2]; 1.6 mg/kg single IV dose of 10 mg/mL formulation, 6 hr after last balloon inflation
  CK-MB (ng/mL) - Change from Baseline, Mean: 0.76 ng/mL
[2]; 1.6 mg/kg single IV dose of 10 mg/mL formulation, 12 hr after last balloon inflation
  CK-MB (ng/mL) - Change from Baseline, Mean: 1.95 ng/mL
[2]; 1.6 mg/kg single IV dose of 10 mg/mL formulation, 18 hr after last balloon inflation
  CK-MB (ng/mL) - Change from Baseline, Mean: 2.55 ng/mL
[2]; 1.6 mg/kg single IV dose of 10 mg/mL formulation, 24 hr after last balloon inflation
  CK-MB (ng/mL) - Change from Baseline, Mean: 2.54 ng/mL
[2]; 1.6 mg/kg
  Troponin-T (ng/mL) - Change from baseline (FAP population), Mean: 0.068 ng/mL
  Troponin-T (ng/mL) - Change from baseline (FAP population), Median: 0.000 ng/mL
  Troponin-T (ng/mL), Mean: 0.066 ng/mL
  Troponin-T (ng/mL), Median: 0.000 ng/mL
[2]; [4]
  CK-MB Cmax as an indicator of injury: least amount of injury
  Efficacy markers of periprocedural injury (changes in Troponin-T, CK-MB AUC0-24, Cmax of CK-MB): lowest
[2]; 2.4 mg/kg single IV dose of 10 mg/mL formulation, 6 hr after last balloon inflation
  CK-MB (ng/mL) - Change from Baseline, Mean: -0.10 ng/mL
[2]; 2.4 mg/kg single IV dose of 10 mg/mL formulation, 12 hr after last balloon inflation
  CK-MB (ng/mL) - Change from Baseline, Mean: 0.10 ng/mL
[2]; 2.4 mg/kg single IV dose of 10 mg/mL formulation, 18 hr after last balloon inflation
  CK-MB (ng/mL) - Change from Baseline, Mean: 0.30 ng/mL
[2]; 2.4 mg/kg single IV dose of 10 mg/mL formulation, 24 hr after last balloon inflation
  CK-MB (ng/mL) - Change from Baseline, Mean: 0.44 ng/mL
[2]; 2.4 mg/kg
  Troponin-T (ng/mL) - Change from baseline (FAP population), Mean: 0.018 ng/mL
  Troponin-T (ng/mL) - Change from baseline (FAP population), Median: 0.000 ng/mL
  Troponin-T (ng/mL), Mean: 0.019 ng/mL
  Troponin-T (ng/mL), Median: 0.000 ng/mL
[2]; [5]
  Maximum CK-MB change from baseline (FIG. 3): less myocardial injury than patients in the placebo group
  Troponin T change from baseline in the full analysis population (FIG. 4): less myocardial injury than patients in the placebo group
[2]; patients undergoing stent PCI, 0.8, 1.6 or 2.4 mg/kg
  Efficacy in reducing myocardial injury / cardioprotective action: demonstrated efficacy in reducing the myocardial injury
[3]
  Protection against myocardial damage associated with percutaneous coronary intervention: statistically significant protection
